Experimental data published in patent US11376326B2, “GPC3-targeting therapeutic agent which is administered to patient for whom the GPC3-targeting therapeutic agent is effective” (CHUGAI SEIYAKU KABUSHIKI KAISHA, priority 2015, dated 2022).
Like-named read-outs stand apart in the source and are kept apart here.

Experiments:
human GPC3 = human GPC3 (Homo sapiens, UniProt P51654); conditions: cited from earlier work
[1] = tested on: human cell line HepG2 strongly expressing GPC3; experiment: Antitumor effect in mouse graft models using HepG2; format: in vivo; conditions: HepG2 graft mice; GC33 or ag-GC33 5 mg/kg tail vein once a week x3; sorafenib 5 mg/kg oral five times a week for 3 weeks; from day 18; FIG. 1
Description: GC33 or ag-GC33 was administered at 5 mg/kg to the tail vein of each mouse once a week a total of three times from 18 days after HepG2 transplantation. Sorafenib was orally administered at 5 mg/kg to each mouse five times a week for 3 weeks from 18 days after HepG2 transplantation.

sGPC3-C = sGPC3-C in mouse plasma by ELISA (GT96/M3C11) at completion of antitumor evaluation; format: in vivo; conditions: HepG2 graft mice, FIG. 3
Description: (§1) At the completion of the antitumor effect evaluation, plasma was collected from each mouse. Fragments of a soluble form of GPC3 were assayed by two types of ELISA methods differing in the combination of anti-GPC3 antibodies. In order to detect the fragments of a soluble form of GPC3 in ELISA, mouse monoclonal antibodies binding to the N-terminal subunit of human GPC3 were prepared as described in WO2004/022739. Hereinafter, the obtained antibodies are referred to as GT30 and GT607 for the sake of convenience. Also, mouse monoclonal antibodies binding to the C-terminal subunit of human GPC3 were prepared as described in WO2004/022739. Hereinafter, the obtained antibodies are referred to as GT96 and M3C11 for the sake of convenience. […]
(§2) Specifically, the detection of sGPC3-N and the detection of sGPC3-C by ELISA were performed as follows: first, the GT30 antibody diluted to 1 μg/mL with a carbonatebicarbonate buffer (manufactured by Sigma-Aldrich Co., LLC) or the M3C11 antibody adjusted to 128 μg/mL in the same way thereas was added at 50 μL/well to a 96-well microplate (manufactured by Meso Scale Discovery (MSD), Multi-array 96-well plate) and stirred at room temperature for 1 hour. […] After washing five times with a washing solution, a substrate solution (manufactured by Meso Scale Discovery (MSD), MSD Read Buffer T (4×) with Surfactant) was added thereto at 100 μL/well. […]

sGPC3-N = sGPC3-N in mouse plasma by ELISA (GT30/GT607) at completion of antitumor evaluation; format: in vivo; conditions: HepG2 graft mice, FIG. 2
Description: as §1, §2

[2] = tested on: advanced hepatocellular carcinoma; conditions: cited from earlier work
[3] = tested on: advanced hepatocellular carcinoma; conditions: cited from earlier work; remark: listed apart in the source
[4] = tested on: advanced hepatocellular carcinoma; conditions: Asian trial; cited from earlier work

Compound | binding affinity to human GPC3 (human GPC3) | tumor enlargement inhibitory effect (tumor volume) [1] | sGPC3-C level in plasma (sGPC3-C) | sGPC3-N level in plasma (sGPC3-N) | HR of survival duration ([2]; both trials, versus placebo) | objective response rate ([2]; in vivo) | time to symptomatic progression ([2]; in vivo) | time to tumor radiological progression ([3]; European and American trial) | survival duration ([3]; SHARP trial) | survival duration [4] | time to tumor radiological progression [4]
GC33: recombinant humanized IgG1 monoclonal antibody binding to human GPC3 with high affinity (WO2006/006693) | high affinity | tumor enlargement was inhibited as compared with the control group | higher in the GC33 administration group compared with the control group, the ag-GC33 group, and the sorafenib group | a lower level of sGPC3-N was found as compared with the control group | – | – | – | – | – | – | –
CNC(=O)c1cc(Oc2ccc(NC(=O)Nc3ccc(Cl)c(C(F)(F)F)c3)cc2)ccn1 [sorafenib] | – | the tumor enlargement inhibitory effect was weaker than that of GC33 | – | equivalent to the GC33 administration group | 0.68 | low | no prolongation | 5.5 months | 10.7 months | 6.5 months | 2.8 months
